Columns and labels:
Assay in all cases: relative viability (nuclei count vs DMSO), 5 days (fraction); higher = more cells survive
Cediranib + Tozasertib = compound: COc1cc2c(Oc3ccc4[nH]c(C)cc4c3F)ncnc2cc1OCCCN1CCCC1 [Cediranib] + Cc1cc(Nc2cc(N3CCN(C)CC3)nc(Sc3ccc(NC(=O)C4CC4)cc3)n2)n[nH]1 [Tozasertib] (partner 0.1 µM)
How it was run: (§1)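 Relative viability equals treated-well nuclei counts divided by vehicle-well nuclei counts. Counts came from 4× images of lung cancer cell lines grown in 1536-well plates for 5 days after pin-tool dosing on the day after seeding. Dosing used one drug alone or a fixed anchor-drug dose plus five library-drug doses (not always all listed) in √10 steps, and values are medians of duplicate plates.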

Decitabine + OSI-027 = compound: Nc1ncn([C@H]2C[C@H](O)[C@@H](CO)O2)c(=O)n1 [Decitabine] + COc1cccc2cc(-c3nc([C@H]4CC[C@H](C(=O)O)CC4)n4ncnc(N)c34)[nH]c12 [OSI-027] (partner 0.5 µM)
How it was run: as §1

Cediranib + Navitoclax = compound: COc1cc2c(Oc3ccc4[nH]c(C)cc4c3F)ncnc2cc1OCCCN1CCCC1 [Cediranib] + CC1(C)CCC(c2ccc(Cl)cc2)=C(CN2CCN(c3ccc(C(=O)NS(=O)(=O)c4ccc(N[C@H](CCN5CCOCC5)CSc5ccccc5)c(S(=O)(=O)C(F)(F)F)c4)cc3)CC2)C1 [Navitoclax] (partner 0.5 µM)
How it was run: as §1

Halofuginone + AZD7762 = compound: O=C(C[C@H]1NCCC[C@@H]1O)Cn1cnc2cc(Br)c(Cl)cc2c1=O (racemic) [Halofuginone] + NC(=O)Nc1cc(-c2cccc(F)c2)sc1C(=O)N[C@H]1CCCNC1 [AZD7762] (partner 0.2 µM)
How it was run: as §1

| Cell Line | relative viability (Cediranib + Tozasertib; first compound 0.04 µM) | relative viability (Cediranib + Tozasertib; first compound 0.1265 µM) | relative viability (Cediranib + Tozasertib; first compound 0.4 µM) | relative viability (Cediranib + Tozasertib; first compound 1.265 µM) | relative viability (Cediranib + Tozasertib; first compound 4 µM) | relative viability (Decitabine + OSI-027; first compound 0.04 µM) | relative viability (Decitabine + OSI-027; first compound 0.1265 µM) | relative viability (Decitabine + OSI-027; first compound 0.4 µM) | relative viability (Decitabine + OSI-027; first compound 1.265 µM) | relative viability (Decitabine + OSI-027; first compound 4 µM) | relative viability (Cediranib + Navitoclax; first compound 0.04 µM) | relative viability (Cediranib + Navitoclax; first compound 0.1265 µM) | relative viability (Cediranib + Navitoclax; first compound 0.4 µM) | relative viability (Cediranib + Navitoclax; first compound 1.265 µM) | relative viability (Cediranib + Navitoclax; first compound 4 µM) | relative viability (Halofuginone + AZD7762; first compound 0.001 µM) | relative viability (Halofuginone + AZD7762; first compound 0.003162 µM) | relative viability (Halofuginone + AZD7762; first compound 0.01 µM) | relative viability (Halofuginone + AZD7762; first compound 0.03162 µM) | relative viability (Halofuginone + AZD7762; first compound 0.1 µM) |
| --- | --- | --- | --- | --- | --- | --- | --- | --- | --- | --- | --- | --- | --- | --- | --- | --- | --- | --- | --- | --- |
| NCI-H1944 | 0.255 | 0.264 | 0.244 | 0.24 | 0.266 | 0.372 | 0.424 | 0.353 | 0.329 | 0.354 | 1.08 | 1.11 | 0.95 | 0.981 | 1.01 | 0.524 | 0.446 | 0.544 | 0.669 | 0.381 |
| NCI-H1975 | 0.822 | 0.809 | 0.699 | 0.822 | 0.768 | 0.516 | 0.378 | 0.32 | 0.277 | 0.256 | 1.18 | 1.13 | 0.956 | 1.19 | 1.21 | 0.737 | 0.792 | 0.666 | 0.644 | 0.402 |
| NCI-H1993 | 0.607 | 0.586 | 0.596 | 0.565 | 0.734 | 0.593 | 0.599 | 0.519 | 0.514 | 0.548 | 1.05 | 0.935 | 0.981 | 0.733 | 1.09 | 0.733 | 0.421 | 0.787 | 1.11 | 0.586 |
| NCI-H2085 | 0.756 | 0.877 | 0.757 | 0.836 | 0.784 | 0.47 | 0.587 | 0.472 | 0.376 | 0.365 | 1.19 | 1.04 | 1.13 | 1.09 | 1.26 | 0.996 | 1.02 | 0.947 | 0.992 | 0.932 |
| NCI-H2087 | 0.279 | 0.257 | 0.213 | 0.226 | 0.228 | 0.376 | 0.348 | 0.317 | 0.257 | 0.28 | 1.07 | 0.914 | 1.01 | 0.984 | 1.07 | 1.42 | 1.48 | 1.33 | 1.48 | 1.01 |
| NCI-H2126 | 0.84 | 0.916 | 0.77 | 0.777 | 0.773 | 0.659 | 0.67 | 0.489 | 0.465 | 0.44 | 0.8 | 0.934 | 0.781 | 0.811 | 0.914 | 1.02 | 0.976 | 1.01 | 0.889 | 0.995 |
| NCI-H2170 | 0.846 | 0.659 | 0.735 | 0.677 | 0.787 | 0.626 | 0.55 | 0.454 | 0.44 | 0.385 | 0.691 | 0.671 | 0.567 | 0.61 | 0.713 | 0.929 | 0.935 | 0.875 | 0.886 | 0.866 |
| NCI-H2347 | 0.532 | 0.385 | 0.596 | 0.539 | 0.485 | 0.382 | 0.478 | 0.34 | 0.402 | 0.383 | 0.886 | 0.754 | 0.748 | 0.831 | 0.891 | 0.673 | 0.745 | 0.681 | 0.822 | 0.538 |
| NCI-H2405 | 0.75 | 0.88 | 0.717 | 0.778 | 0.757 | 0.555 | 0.564 | 0.543 | 0.444 | 0.399 | 0.766 | 1.01 | 0.79 | 1.11 | 0.838 | 0.79 | 0.881 | 0.674 | 0.678 | 0.541 |
| NCI-H3122 | 0.393 | – | 0.364 | 0.53 | 0.468 | 0.814 | 0.955 | 0.468 | – | 0.559 | 1.05 | 1.03 | 1.05 | 0.998 | 1.02 | 0.937 | 1.09 | 0.985 | 0.94 | 0.922 |
| PC-3 [JPC-3] | 0.886 | 0.906 | 0.947 | 0.891 | 0.876 | 0.463 | 0.702 | 0.475 | 0.469 | 0.426 | 0.715 | 0.705 | 0.735 | 0.849 | 0.801 | 0.881 | 0.933 | 0.669 | 0.783 | 0.499 |
| PC-14 | 0.711 | 0.651 | 0.585 | 0.61 | 0.483 | 0.148 | 0.425 | 0.16 | 0.113 | 0.105 | 0.989 | 1.03 | 1.02 | 0.905 | 1.24 | 0.435 | 0.409 | 0.381 | 0.366 | 0.198 |
| RERF-LC-KJ | 0.598 | 0.535 | 0.469 | 0.544 | 0.464 | 0.529 | 0.559 | – | 0.457 | 0.471 | 0.974 | 1.29 | 0.756 | 0.926 | 0.734 | 1.1 | 1.15 | 1.05 | 0.96 | 0.956 |

From the supplement of paper PMC10307832
